ChEMBL document CHEMBL5257060, “Trust Your Gut: Strategies and Tactics for Intestinally Restricted Drugs” (ACS Med Chem Lett, 2023)
Blank lines part the entries; values can stand above or below the molecule they belong to.

Key:
[1] = Drug recovery in feces of rats at 30 mg/kg, po; type: ADME, organism-based; conditions: rat, faeces, read-out: Drug recovery
[2] = Cmax in rat at 30 mg/kg, po; type: ADME, organism-based; set-up: dose 30 mg/kg, route po; conditions: in vivo
[3] = target: T1, Sodium/hydrogen exchanger 3 (Homo sapiens, UniProt P48764); assay: Inhibition of human NHE3
T1 sequence (P48764 whole entry): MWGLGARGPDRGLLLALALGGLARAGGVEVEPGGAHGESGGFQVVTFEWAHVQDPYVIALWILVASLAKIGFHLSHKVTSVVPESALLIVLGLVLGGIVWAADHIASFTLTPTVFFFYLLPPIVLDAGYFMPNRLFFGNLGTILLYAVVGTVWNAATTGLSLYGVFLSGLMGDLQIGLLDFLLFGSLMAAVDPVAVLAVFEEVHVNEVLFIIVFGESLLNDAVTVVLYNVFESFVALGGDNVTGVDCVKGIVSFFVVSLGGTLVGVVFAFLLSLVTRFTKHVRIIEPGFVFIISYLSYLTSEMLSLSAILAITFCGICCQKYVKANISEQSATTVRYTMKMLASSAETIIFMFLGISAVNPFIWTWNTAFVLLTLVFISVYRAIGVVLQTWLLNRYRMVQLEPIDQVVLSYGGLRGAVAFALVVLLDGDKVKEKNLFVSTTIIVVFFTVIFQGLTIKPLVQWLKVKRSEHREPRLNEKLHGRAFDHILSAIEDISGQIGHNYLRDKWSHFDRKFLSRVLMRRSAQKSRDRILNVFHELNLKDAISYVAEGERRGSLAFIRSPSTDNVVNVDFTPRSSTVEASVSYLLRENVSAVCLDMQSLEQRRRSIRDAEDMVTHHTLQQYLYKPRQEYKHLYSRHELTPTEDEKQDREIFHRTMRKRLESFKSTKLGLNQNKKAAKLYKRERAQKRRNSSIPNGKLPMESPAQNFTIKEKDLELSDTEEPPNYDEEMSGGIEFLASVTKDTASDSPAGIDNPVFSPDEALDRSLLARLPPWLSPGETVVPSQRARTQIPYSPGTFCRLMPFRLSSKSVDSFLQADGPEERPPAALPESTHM

[4] = target: T2, G-protein coupled bile acid receptor 1 (Mus musculus, UniProt Q80SS6); assay: Inhibition of mouse TGR5
T2 sequence (Q80SS6 whole entry): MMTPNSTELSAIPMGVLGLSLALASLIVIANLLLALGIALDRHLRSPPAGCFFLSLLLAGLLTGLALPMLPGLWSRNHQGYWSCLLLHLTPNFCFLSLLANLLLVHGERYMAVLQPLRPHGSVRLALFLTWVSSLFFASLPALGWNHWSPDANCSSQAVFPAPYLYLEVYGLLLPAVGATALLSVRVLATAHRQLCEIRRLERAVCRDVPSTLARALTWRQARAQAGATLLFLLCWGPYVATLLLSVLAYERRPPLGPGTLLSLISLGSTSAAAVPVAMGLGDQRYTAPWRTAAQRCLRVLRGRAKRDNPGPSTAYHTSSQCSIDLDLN

[5] = AUC in mouse at 5 mg/kg, po; type: ADME, organism-based; set-up: dose 5 mg/kg, route po; conditions: in vivo
[6] = Drug recovery in feces of mouse at 5 mg/kg, po; type: ADME, organism-based; conditions: faeces, read-out: Drug recovery
[7] = Apparent permeability across apical to basolateral side in human Caco-2 cells; type: ADME, cell-based
[8] = Drug concentration in mouse intestine at 30 mg/kg, po measured for 2 hr; type: ADME, organism-based; conditions: read-out: Ct
[9] = Drug concentration in mouse plasma at 30 mg/kg, po measured for 2 hr; type: ADME, organism-based
[10] = Cmax in ICR mouse plasma at 150 mg/kg, po measured at 1 hr post dose; type: ADME, organism-based; set-up: time 1 hrs, dose 150 mg/kg, route po
Dipeptidyl peptidase 4 = Dipeptidyl peptidase 4 (Mus musculus, UniProt P28843); assay: Inhibition of mouse DPP4
Sequence of Dipeptidyl peptidase 4 (P28843 whole entry): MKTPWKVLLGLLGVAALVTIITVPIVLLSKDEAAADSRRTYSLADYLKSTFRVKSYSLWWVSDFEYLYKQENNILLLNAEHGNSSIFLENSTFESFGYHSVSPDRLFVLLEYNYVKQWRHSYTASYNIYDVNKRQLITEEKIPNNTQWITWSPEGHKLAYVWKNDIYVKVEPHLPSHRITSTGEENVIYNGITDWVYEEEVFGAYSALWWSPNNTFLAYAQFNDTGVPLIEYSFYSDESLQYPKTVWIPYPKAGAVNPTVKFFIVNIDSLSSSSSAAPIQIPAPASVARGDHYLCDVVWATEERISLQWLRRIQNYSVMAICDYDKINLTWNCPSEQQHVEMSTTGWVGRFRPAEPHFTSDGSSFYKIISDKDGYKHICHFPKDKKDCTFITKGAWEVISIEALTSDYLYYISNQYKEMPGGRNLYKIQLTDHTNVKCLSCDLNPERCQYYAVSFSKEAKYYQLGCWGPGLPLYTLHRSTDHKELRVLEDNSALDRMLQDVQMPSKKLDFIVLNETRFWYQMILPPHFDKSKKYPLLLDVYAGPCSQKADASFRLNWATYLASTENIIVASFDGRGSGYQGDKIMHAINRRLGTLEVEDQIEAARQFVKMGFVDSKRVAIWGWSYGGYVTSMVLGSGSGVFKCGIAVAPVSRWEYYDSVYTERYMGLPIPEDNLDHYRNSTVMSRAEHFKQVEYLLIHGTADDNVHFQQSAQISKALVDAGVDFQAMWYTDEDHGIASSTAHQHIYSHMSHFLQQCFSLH

[11] = Apparent permeability across apical to basolateral side in human Caco-2 cells by PAMPA assay; type: ADME, cell-based
[12] = Efflux ratio of apparent permeability in human Caco-2 cells; type: ADME, cell-based
[13] = Apparent permeability in human Caco-2 cells; type: ADME, cell-based
[14] = Cmax in mouse colon at 10 mg/kg, po; type: ADME, organism-based; set-up: dose 10 mg/kg, route po
[15] = Cmax in mouse plasma at 10 mg/kg, po; type: ADME, organism-based; set-up: dose 10 mg/kg, route po
[16] = Cmax in rat plasma at 10 mg/kg, po; type: ADME, organism-based; set-up: dose 10 mg/kg, route po
[17] = Cmax in mouse colon content at 10 mg/kg, po; type: ADME, organism-based; set-up: dose 10 mg/kg, route po
[18] = Drug recovery in feces of rats at 20 mg, po; type: ADME; conditions: rat, faeces, read-out: Drug recovery

concentration at 2 h [8]: 30 µM
concentration at 2 h [9]: 0.006 µM
SMILES: Cc1cc(C)c(S(=O)(=O)N(CCc2cccc(Br)c2)Cc2ccc(-c3cccc(S(C)(=O)=O)c3)cc2)c(C)c1

Cmax [10]: 101 ng/mL
IC50 (Dipeptidyl peptidase 4): 70 µM
Papp A→B [11]: 0.03 ×10⁻⁶ cm/s
EC50 [4]: 0.017 µM
SMILES: CC#CCn1c(N2CCC[C@H](NC(=O)CCOCCOCCOCCOCCOCCOCCN(C)C(=O)CCc3cc(Cl)c(Oc4ccncc4C(=O)N4CCN(C5CC5)c5ccccc54)cc3Cl)C2)nc2c1c(=O)n(Cc1nc(C)c3ccccc3n1)c(=O)n2C

Papp A→B [7]: 0.06 ×10⁻⁶ cm/s
SMILES: CN(CC[N+](C)(C)C)C(=O)CCc1cc(Cl)c(Oc2ccsc2C(=O)N2CCN(C3CC3)c3ccccc32)cc1Cl.O=C([O-])C(F)(F)F

Cmax [16]: 57 ng/mL
Cmax [14]: 150000 ng/g
Cmax [17]: 1e+07 ng/g
SMILES: Cc1cccc(Oc2cc(Oc3cccc(C)n3)cc(Oc3cccc(C)n3)c2)n1 [AMELENODOR]

dose excreted [18]: 94%
SMILES: CCCCC1(CCCC)CS(=O)(=O)c2ccc(N(C)C)cc2[C@@H](c2ccc(OCc3ccc(C[N+]45CCN(CC4)CC5)cc3)cc2)[C@H]1O [MARALIXIBAT]

Continued, molecule first:

SMILES: CN1Cc2c(Cl)cc(Cl)cc2[C@@H](c2cccc(S(=O)(=O)NCCOCCOCCNC(=O)NCCCCNC(=O)NCCOCCOCCNS(=O)(=O)c3cccc([C@@H]4CN(C)Cc5c(Cl)cc(Cl)cc54)c3)c2)C1
dose excreted [1]: 92%
Cmax [2]: < 0.5 ng/mL
IC50 [3]: 0.0005 µM

SMILES: CO[C@@H]1C[C@@H]2C[C@H](O)CC[C@]2(C)[C@H]2CC[C@]3(C)[C@@H]([C@H](C)CCC(=O)N(C)C[C@H](O)[C@@H](O)[C@H](O)[C@H](O)CO)CC[C@H]3[C@H]12
EC50 [4]: 0.0623 µM

SMILES: CO[C@@H]1CC[C@@]2(C)[C@H](CC(OS(=O)(=O)[O-])[C@@H]3[C@@H]2CC[C@]2(C)[C@@H]([C@H](C)CCc4nnn[nH]4)CC[C@@H]32)C1.[Na+] (some centres not stated)
AUC [5]: 4840 ng·h/mL
dose excreted [6]: 89%
Papp A→B [7]: 0.4 ×10⁻⁶ cm/s

SMILES: Cc1cc(Nc2cc3ncccc3c(NC3C[C@H]4CC[C@@H](C3)N4CCC#N)n2)n[nH]1 (some centres not stated)
efflux ratio [12]: 32.5
Papp [13]: 1.17 ×10⁻⁶ cm/s
Cmax [14]: 9.17 µM
Cmax [15]: 0.003 µM
